Tested on: Pluripotent stem cells (iPS and ES)
Experiment: Effects of DEAB on blood cell phenotypes, flow cytometry at Day 16
Assay type: cell-based, human
Conditions: DEAB 10 uM vs DMSO
Experimental: Cells from the differentiation cultures were collected at time points indicated and washed in phosphate-buffered saline (PBS) supplemented with 2% FBS. Adherent cells were individualized using TrypLE (Life Technologies, Carlsbad Calif.), passed through a 27.5-gauge needle and filtered through a 40-70 μm cell strainer (BD Falcon, San Diego, Calif., www.bdbiosciences.com). Cells were treated with 7-aminoactinomycin D (7AAD) before analysis, and positive cells were gated out of results. Cells were stained with fluorescence-conjugated antibodies for the hematopoietic stem and progenitor cell markers CD45, CD43, CD34, CD38, CD90; CD45RA. Cells were analyzed on a FACS Canto (BD, Franklin Lakes, N.J., www.bd.com).
Cells were counted using the FACS cell counter feature (BD) or by cytometer using a bright-field microscope to obtain viable cell numbers. The total numbers of cells of each subpopulation were calculated by multiplying the number of cells by the proportion of cells of that lineage as determined by flow cytometry. Statistical analyses of data points and error bars of this study show mean and standard deviation, with statistical significance assessed by the Student's t-test.
From Example 1, DEAB was selected to move forward into an experiment further establishing the phenotypes of blood cells emerging from the differentiation in order to identify at what stage of differentiation DEAB may exert its effects. Pluripotent stem cells (iPS and ES) were grown and induced to produce embryoid bodies on Day 8 as described. The EBs were then exposed to Differentiation Medium 1 for a total of 8 days with partial medium changes made every other day as described. Cells were harvested on Day 16 and washed in phosphate-buffered saline (PBS) supplemented with 2% FBS. Adherent cells were individualized using TrypLE (Life Technologies, Carlsbad Calif.), passed through a 27.5-gauge needle and filtered through a 40-70 μm cell strainer (BD Falcon, San Diego, Calif., www.bdbiosciences.com). Cells were treated with 7-aminoactinomycin D before analysis and positive cells were gated out of results. Cells were stained with fluorescence conjugated antibodies for the hematopoietic stem and progenitor cell markers CD45, CD43, CD34, CD38, CD90, CD45RA. Cells were analyzed on an FACS Canto (BD, Franklin Lakes, N.J., www.bd.com).

CCN(CC)c1ccc(C=O)cc1 [DEAB, 4-diethylaminobenzaldehyde] was tested, and the “blood cells (CD45+, CD43+)” value (Day 16) was “modestly higher values”, the “hematopoietic progenitor cells (CD45+, CD43+, CD34+)” value (Day 16) was “modestly higher values” and the “population of cells exhibiting a hematopoietic stem cell phenotype (CD45+, CD43+, CD34+, CD38−, CD90+, CD45RA−)” value (Day 16) was “substantial improvement”. For the same compound, the total viable cells (Day 16) was “modestly higher values” and the “increase in generation of the phenotypic stem cell phenotype” value (FIGS. 4B and 4D) was “over 3 fold”.
